Series [1] deals with mouse brain glioma cell line (GL261). As to the kind of experiment: IncuCyte S3 live-cell proliferation of GL261 cells. Type of series: cell-based.
Description: 3 to 6 replicates were established for each group, with *P<0.05, **P<0.01, and ***P<0.001, and ns for no statistical difference.
IncuCyte S3® Live-Cell Analysis System was used to monitor and analyze the growth of mouse glioma GL261 cells. • (1) GL-261 cells in logarithmic growth phase were prepared into a single cell suspension, and the cells were counted; • (2) GL261 cells were added into a 96-well plate at a density of 8x10^4 cells/mL, with 4-6 replicate wells per each group; • (3) The 96-well plate was then placed in an incubator for another 12-24 hours, and the plate was refreshed with a culture medium containing the drug at the cell confluence of about 20-30%. GSK126 and fenofibrate (FF) were serially diluted using the medium; • (4) The 96-well plate was then placed in the incubator suitable for the instrument, and detected with IncuCyte S3® Live-Cell Analysis System. Cell growth images of 4 different areas in each well were taken at an interval of 4 h using a 10× objective lens. • (5) The plate was real-time monitored for 48 h, and the cell confluence was determined by defining the cell edge using IncuCyte S3 image analysis software and normalized to the cell confluence at 0 h. […]
Series [2] relates to melanoma B16F10 cells. The series can be described thus: IncuCyte S3 live-cell proliferation of B16F10 cells. Type of series: cell-based. The method, then: (§1) FIG. 1: Hematological tumors are more sensitive to GSK126 than solid tumors. (A) Proliferation of B16F10, Huh7 and SMMC7721 cells in GSK126 (10-20 μM) treatment was monitored by Incucyte S3 with 6 replicates per group; (B) Viabilities of Daudi and THP-1cells after GSK126 (200 nM to 24 μM) treatment for 24 h and 48 h were measured by CCK-8 assay with 5 replicates per group; (C) Western blot (WB) analysis on B16F10 cells after 48 h without or with GSK126 treatment (6 μM, and 12 μM), with H3 used as an internal reference for histone. 5 to 6 replicates were established for each group, with *P<0.05, **P<0.01, and ***P<0.001, and ns for no statistical difference.
P=0.0108, P=0.0385, Kaplan-Meier survival analysis; (C) effect of telmisartan at different concentrations on the proliferation of U87 cells (left) and U251 cells (right) (3 replicates per group); (D) effect of fenofibrate at different concentrations on the proliferation of B16F10 cells (left) and 4T1 cells (right) (3 replicates per group); (E) FACS quantitative analysis of the percentage of cells positive for EdU (FITC+) staining 48 h after the telmisartan treatment on U87 and U251 cells. Single cells were first gated, followed by FITC+cells. The percentage of FITC+ cells was listed above the corresponding cell population. […]

For series [3], the system named is ACLY, FASN, SCD in Huh7 cells. As to the kind of experiment: RT-qPCR/WB of fatty acid synthesis genes in Huh7 cells. Type of series: cell-based. The conditions noted are these: after GSK126 treatment. An excerpt: (§2) FIG. 4: Lipid accumulation in mice after GSK126 treatment. (A) H & E and oil red O staining of the liver tissue sections of the tumor-bearing mice in the control group and the GSK126 treatment group, in which the statistical results of negative or positive staining area were shown on the right (3 replicates per group); (B) TG level in the serum of the tumor-bearing mice in the control group and the GSK126 treatment group (5 replicates per group); (C-D) mRNA (C) and protein (D) levels of the genes related to fatty acid anabolism in the GSK126-treated HCC cells, as detected by RT-qPCR and WB (3 replicates per group). 3 to 5 replicates were established for each group, with *P<0.05, **P<0.01.
(§3) C57BL/6 mice (6-8 weeks old) were subcutaneously implanted with B16F10 cells and then treated with GSK126. […] Therefore, the expression of fatty acid synthesis-related genes in GSK126-treated hepatocellular carcinoma (HCC) cell lines SMMC7721 and Huh7 was further detected.

In the next series the test system is hepatoma SMMC-7721 cells. The series can be described thus: IncuCyte S3 live-cell proliferation of SMMC-7721 cells. Type of series: cell-based. The method, then: as §1
(§4) FIG. 6: Lipid-modulating drugs can enhance the inhibitory effect of GSK126 on cancer cells. […] 3 to 5 replicates were established for each group, with *P<0.05, **P<0.01, and ***P<0.001.
(§5) In order to accurately assess the responsiveness of solid tumor cells to EZH2 inhibitors, the effects of GSK126 at different concentrations on the proliferation of melanoma B16F10 cells and hepatoma Huh7 and SMMC-7721 cells were initially detected by IncuCyte S3® Live-Cell Analysis System.

Series [4] deals with hematologic cancer cell lines. The conditions noted are these: most hematologic cancer cell lines; many studies; read-out: IC50 (half-maximal inhibitory concentration); cited from earlier work.
The next series relates to THP-1 cells. As to the kind of experiment: CCK-8 cell proliferation assay, THP-1. The conditions noted are these: 10 μM GSK126 for 24 h and 48 h. Type of series: cell-based. The method, then:
as §1

The subject of another series is melanoma cells B16F10. As to the kind of experiment: Cell scratch assay (migration) of B16F10 cells. Type of series: cell-based. The conditions noted are these: GSK126 10 μM, 36 h of culture, vs control group. The method, then:
(§6) FIG. 2: Melanoma cells B16F10 are less sensitive to GSK126. (A) Cell scratch assay, showing the effect of GSK126 (10 μM) treatment on the migration capability of B16F10 cells, with 3 replicates per group; (B-C) the effect of GSK126 (10, 13, and 15 μM) on the apoptosis rate of B16F10 cells, as examined by flow cytometry (C) and Annexin V staining assay. 3 replicates were established for each group, with *P<0.05, **P<0.01, and ***P<0.001, and ns for no statistical difference.
(§7) Next, to further validate the effect of GSK126 at 10 μM on melanoma cells B16F10,scratch assay was conducted. […] In addition, to assess the anti-survival effect of GSK126, B16F10 cells were treated by GSK126 at different concentrations for different periods, and the apoptosis rate of the cells was analyzed by flow cytometry (FIG. 2B) and live-cell fluorescence imaging (FIG. 2C).

Another series concerns C57BL/6 mice. The series can be described thus: Lipid accumulation in B16F10 tumor-bearing C57BL/6 mice. Type of series: in vivo. The conditions noted are these: B16F10 tumor-bearing C57BL/6 mice treated with GSK126.
Description: as §2, §3

For series [5], the system named is melanoma B16F10 cells. The series can be described thus: Fatty acid metabolite levels in B16F10 cells. Type of series: cell-based. The conditions noted are these: GSK126 group. An excerpt: FIG. 3: GSK126 results in significant elevated levels of 6 fatty acids in melanoma B16F10 cells.
Among the metabolites with significant changes, the levels of many fatty acids increased in the GSK126 group. There are five polyunsaturated fatty acids, including α-linolenic acid, DHA, EPA, linoleic acid, and γ-linolenic acid) and one monounsaturated fatty acid, i.e., 10Z-heptadienoic acid (FIG. 3).

For series [6], the system named is H3K27me3 level in B16F10 cells. The series can be described thus: Western blot of H3K27me3 in B16F10 cells. Type of series: cell-based. The conditions noted are these: GSK126 6 μM, 48 h, H3 internal reference. The method, then:
as §1
(In general: A western blot detects proteins with antibodies after separation by electrophoresis.)

For series [7], the system named is ACLY, FASN, SCD in SMMC7721 cells. The series can be described thus: RT-qPCR/WB of fatty acid synthesis genes in SMMC7721 cells. Type of series: cell-based. The conditions noted are these: after GSK126 treatment.
Description: as §2, §4, §3
(In general: Quantitative PCR measures a nucleic acid by following its amplification.)

Series [8] concerns Burkitt's lymphoma cells (Daudi). The series can be described thus: CCK-8 cell proliferation assay, Daudi. Type of series: cell-based. The method, then: as §1
On the technique in general: Tetrazolium dyes change colour on reduction, which living cells bring about.

The test system of the next series is B16F10 cells. As to the kind of experiment: Apoptosis of B16F10 cells by flow cytometry and live-cell fluorescence imaging. Type of series: cell-based. The conditions noted are these: GSK126 10 μM. The method, then: as §6, §7
A further series relates to hepatoma Huh7 cells. As to the kind of experiment: IncuCyte S3 live-cell proliferation of Huh7 cells. Type of series: cell-based. The method, then:
as §1, §5

For another series, the system named is U87 cells. The series can be described thus: EdU staining with flow cytometry, U87. Type of series: cell-based, human. The conditions noted are these: telmisartan 50 μM, 48 h, 24.25% before treatment. The method, then: (§8) P=0.0108, P=0.0385, Kaplan-Meier survival analysis; (C) effect of telmisartan at different concentrations on the proliferation of U87 cells (left) and U251 cells (right) (3 replicates per group); (D) effect of fenofibrate at different concentrations on the proliferation of B16F10 cells (left) and 4T1 cells (right) (3 replicates per group); (E) FACS quantitative analysis of the percentage of cells positive for EdU (FITC+) staining 48 h after the telmisartan treatment on U87 and U251 cells. Single cells were first gated, followed by FITC+cells. The percentage of FITC+ cells was listed above the corresponding cell population. 3 replicates were established for each group, with *P<0.05, **P<0.01, ***P<0.001, and ****P<0.0001, and ns for no statistical difference.
(§9) Therefore, telmisartan and fenofibrate were selected to explore whether lipid metabolism-regulating drugs have anti-tumor effects. […] The effect of telmisartan (50 μM) on cell proliferation was further verified by EdU staining.

The next series concerns human glioma cells U251. The series can be described thus: Incucyte real-time proliferation of U251 cells. Type of series: cell-based. The conditions noted are these: telmisartan at different concentrations. The method, then:
as §8, §9

The next series concerns human glioma cells U87. As to the kind of experiment: Incucyte real-time proliferation of U87 cells. Type of series: cell-based. The conditions noted are these: telmisartan at different concentrations. The method, then:
as §8, §9

Another series relates to U251 cells. The series can be described thus: EdU staining with flow cytometry, U251. Type of series: cell-based, human. The conditions noted are these: telmisartan 50 μM, 48 h, 41.44% before treatment. The method, then: as §8, §9
Setting [9] is: GSK126 at different concentrations (10-20 μM).

Turning to `CC[C@H](C)n1cc(C)c2c(C(=O)NCc3c(C)cc(C)[nH]c3=O)cc(-c3ccc(N4CCNCC4)nc3)cc21` [GSK126], the “inhibitory effect on cell proliferation” value is on record as “can not achieved” in series [1] (GSK126 20 μM alone, compared with 40 μM or combination) and “the same as that of the combination” in [1] (GSK126 40 μM, compared with GSK126 20 μM + fenofibrate 10 μM). Further, the cell proliferation result in the series with melanoma B16F10 cells [2] (GSK126 10 μM) is reported as “less effective”; in the series with melanoma B16F10 cells [2] (setting [9]) it was “inhibited cell proliferation in a dose-dependent manner”; in the series on hepatoma SMMC-7721 cells (GSK126 10 μM) it was “less effective”; in the series on hepatoma SMMC-7721 cells (setting [9]) it was “inhibited cell proliferation in a dose-dependent manner”; in the series with hepatoma Huh7 cells (GSK126 10 μM), “less effective”; in the series with hepatoma Huh7 cells (setting [9]), “inhibited cell proliferation in a dose-dependent manner”. For the same compound, the “mRNA and protein levels of ACLY, FASN, and SCD” value in series [3] and in series [7] was “significantly elevated” each time. In [4], the IC50 was less than 1000 nM. In addition, the “proliferation (CCK-8)” value in the series with THP-1 cells was “significantly inhibited”; in [8] (10 μM GSK126 for 24 h and 48 h) it was “significantly inhibited”. In addition, the cell migration result in the series with melanoma cells B16F10 is on record as “did not effectively inhibit cell migration”. In the series with C57BL/6 mice, the “fat vacuoles and lipid deposition in liver tissue sections (H & E and oil red O staining)” value is listed as “significant increase”. Also, in the series on C57BL/6 mice, the “levels of triglycerides (TG) in blood” value is listed as “significantly elevated”. The “levels of fatty acids (α-linolenic acid, DHA, EPA, linoleic acid, γ-linolenic acid, 10Z-heptadienoic acid)” value in the series on melanoma B16F10 cells [5] is “increased”. Moreover, the H3K27me3 level entry in series [6] is “significantly down-regulated”. Besides, the “sensitivity (CCK-8 proliferation)” value in series [8] (1 μM GSK126) is on record as “very sensitive”. For the same compound, in the series with B16F10 cells, the apoptosis rate result is “limited capability to induce apoptosis”.

As for `CCCc1nc2c(C)cc(-c3nc4ccccc4n3C)cc2n1Cc1ccc(-c2ccccc2C(=O)O)cc1` [telmisartan], the “percentage of EdU+ cells” value with U87 cells was 21.16%; in the series on U251 cells it was 38.78%. The cell proliferation entry in the series with human glioma cells U251 and in the series on human glioma cells U87 was “inhibit the proliferation” in each case.

The record behind these values is patent publication US20240398789A1, “PHARMACEUTICAL COMPOSITION FOR ENHANCING ANTI-TUMOR EFFECT OF EZH2 INHIBITOR AND USE THEREOF” (PEKING UNIVERSITY THIRD HOSPITAL, priority 2021, published 2024).
